Experiments:
[1] = system: Jurkat.iAkt cells; experiment: Apoptosis by propidium iodide staining and flow cytometry (hypodiploid cells); assay type: cell-based, human; details: for etoposide-induced cell death: etoposide 0.3-100 μM, 12 hours
Procedure: Jurkat.iAkt were serum starved for 24 hours followed by pre-treatment with AP22783 in 0, 2 or 10% FBS for 40 min. After incubation with apoptosis-inducing stimuli for the periods indicated, cells were harvested and washed twice in ice-cold PBS and fixed in 70% ethanol. Cells were stained in 50 μg/ml propidium iodide and 100 μg/mlRNase A for 30 min at 37° C., and hypodiploid cells were quantitated by flow cytometry using a Beckman-Coulter EPICS XL-MCL.
Jurkat.iAkt cells were given various apoptotic insults in the presence or absence of rapalogs. Initially, the protective effects of iAkt were studied on staurosporine (STS)-induced apoptosis. […] Following serum starvation for 24 hours, Jurkat.iAkt cells were treated with 0, 0.5, or 2.0 μM STS with or without AP22783 (400 nM) for 6 hours in the absence of serum. Cell death was monitored using propidium iodide (PI) staining and flow cytometry (FCM) by quantitation of subdiploid cells.
The effects of AP22783 treatment following PI3K inhibition of Jurkat.iAkt cell were studied.
Finally, the anti-apoptotic effects of iAkt on protection from direct DNA damaging agents were examined. The anti-tumor agent, etoposide (VP16), is widely used as a chemotherapeutic drug that works by inhibiting DNA topoisomerase II, which can induce apoptosis in a variety of cell types. […] Again, the experiments were carried out in two different culture conditions with low or high FBS levels.

[2] = system: F3-ΔPH.Akt kinase; experiment: Immunoprecipitation and in vitro Akt kinase assay (GSK3α/β crosstide); assay type: biochemical; details: Jurkat.iAkt serum starved 24 hours, treated 30 min, anti-HA immunoprecipitate
Procedure: Jurkat.iAktb were serum starved for 24 hours followed by treatment with AP22783 or serum for 30 min. Cells were then lysed in a lysis buffer provided with the Akt Kinase Assay kit (Cell Signaling, Beverly, Mass.), and Fpk3-ΔPH.AKT-E was immunoprecipitated with polyclonal anti-HA antibody. Antibody-antigen complexes were washed three times in lysis buffer and once in kinase buffer. In vitro kinase assays for Akt were performed using a GSK3α/β “crosstide”. The extent of crosstide phosphorylation was determined by anti-GSKα/β immunoblotting according to the manufacturer's protocol.
To further measure the induction of Akt enzymatic activity, Jurkat.iAkt cells were serum starved for 24 hours and thereafter treated with AP22783 or serum for 30 min. Chimeric F3-ΔPH.Akt.-kinase was immunoprecipitated with the anti-HA antibody and Akt kinase activity was measured using an in vitro kinase assay that uses a GSK3α/β “crosstide” as a substrate. The level of phosphorylated GSK3 crosstides was determined by immunoblotting with phospho-specific antibody against GSK3-α21/β9.

[3] = system: caspase-3 and PARP in Jurkat.iAkt cells; experiment: Caspase-3 activation and PARP cleavage by immunoblotting
Procedure: Next, caspase-3 activation and PARP substrate cleavage were measured by immunoblotting.

[4] = system: Akt (T308 or S473 site); experiment: Western blot of Akt phosphorylation in transfected 293T cells; assay type: cell-based, human; details: M-FRB12 plus F3-ΔPH.Akt, serum starved 24 hours, as early as 30 min after drug addition
Procedure: 293T cells seeded in 6-well plates were transiently transfected with 2 μg of different expression constructs in 6 μl FuGENE6 (Boehringer-Mannheim, Indianapolis, Ind.) in Opti-MEM-I medium for 24 hours followed by serum starvation for an additional 24 hours. Cells were then treated with different agents and harvested at different time points. After washing (2×) in ice-cold PBS, cell pellets were lysed in RIPA buffer containing protease inhibitors (CytoSignal, Irvine, Calif.). Equal amounts of protein from each sample were separated on 10% SDS-PAGE gels and transferred to PVDF membrane (Amersham Pharmacia Biotech, Piscataway, N.J.). Phospho-specific antibodies against Akt (T308 or S473 site) (Cell Signaling, Beverly, Mass.) were used for measuring Akt phosphorylation, and the signal was detected by AP-conjugated secondary antibodies (NEB, Beverly, Mass.) and CDP-Star chemiluminescence reagent (NEN life science, Boston, Mass.).
Briefly, 293T cells were transiently co-transfected with M-FRB1 2 and F3-ΔPH.Akt expression plasmids. After 24 hours, transfected cells were serum starved for another 24 hours and then treated with AP22783.

[5] = system: NF-κB; experiment: NF-κB/SEAP reporter assay in Jurkat-TAg cells; assay type: cell-based, human; details: R0318220 1 μM
[6] = system: endogenous Akt and iAkt; experiment: Akt phosphorylation in Jurkat.iAkt cells after kinase inhibitor pretreatment; assay type: cell-based, human; details: 30 min inhibitor pretreatment, then AP22783 30 min
Procedure: Jurkat.iAkt cells were serum starved for 24 hours followed by 30 min pretreatment with PI3K inhibitors, wortmannin and LY294002, or MEK inhibitor, PD98059, as a control. After inhibitor pretreatment, AP22783 was added to the media for another 30 min to mobilize membrane recruitment of iAkt.

SMILES: O=C(O)COc1ccccc1O [AP22783]
- apoptotic cells ([1]; 2 μM STS with AP22783 400 nM, 6 hours, no serum, without background correction): 17%
- PI3K inhibitor-induced cell death ([1]; AP22783 400 nM with wortmannin or LY294002, 2% or 10% FBS, 9 hours): almost totally blocked
- CH-11-triggered apoptosis ([1]; AP22783 400 nM, 2% or 10% FBS, 6 hours): rescued cells from CH-11-triggered apoptosis
- etoposide-induced cell death ([1]; AP22783 400 nM, high FBS): reduced etoposide-induced cell death efficiently
- etoposide-induced cell death ([1]; AP22783 400 nM, low FBS): lesser, but reproducible level of protection
- STS-induced toxicity (apoptosis) ([1]; low-dose STS (0.5 μM) with AP22783 400 nM, 6 hours, no serum): fully blocked
- Akt kinase activity (GSK3 crosstide phosphorylation) [2]: associated with GSK3 phosphorylation
- STS-induced caspase-3 activation ([3]; with AP22783): blocked
- high-dose STS-induced PARP cleavage ([3]; with AP22783): reduced
- low-dose STS-induced PARP cleavage ([3]; with AP22783): blocked
- phosphorylation of iAkt at S473 and T308 [4]: greatly stimulated

SMILES: CN[C@@H]1C[C@H]2O[C@@](C)([C@@H]1OC)n1c3ccccc3c3c4c(c5c6ccccc6n2c5c31)C(=O)NC4 [STS, staurosporine]
- apoptotic cells ([1]; 2 μM STS, 6 hours, no serum, without AP22783, without background correction): 36%
- cell death ([1]; STS 0, 0.5 or 2.0 μM, 6 hours, no serum): induced cell death in a dose-response manner
- apoptotic cells ([1]; low-dose STS (0.5 μM), 6 hours, no serum, without AP22783): 19.4%
- procaspase-3 level ([3]; STS at high-dose): significant reduction of procaspase-3
- PARP cleavage ([3]; STS at low- and high-dose): dramatic PARP cleavage

SMILES: Cn1cc(C2=C(c3cn(CCCSC(=N)N)c4ccccc34)C(=O)NC2=O)c2ccccc21 [R0318220]
- NF-κB activation by M-Akt plus PKC [5]: complete inhibition of NF-κB

SMILES: COc1cccc(-c2cc(=O)c3ccccc3o2)c1N [PD98059]
- endogenous Akt phosphorylation at T308 [6]: no discernable effect
- iAkt phosphorylation [6]: no discernable effect
